Consider five molecules from US20140187618A1, “COMPOSITIONS, METHODS AND KITS USING FOR INDUCING OR ENHANCING NEUROGENESIS IN CELLS AND TISSUE” (Biocrescentia, LLC, priority 2012, published 2014).

Assay [1] deals with TNF-α, interleukin-6 and interleukin-12. Conditions: mice treated with lipopolysaccharide; cited from earlier work.
Another assay has as its system macrophages. Conditions: cultured in vitro model; cited from earlier work.
Another assay concerns Leishmania amazonensis. Conditions: cited from earlier work.
The conditions of assay [2]: in vivo; cited from earlier work.
The subject of assay [3] is neural stem cells in the dentate gyrus of the hippocampus. Description: BrdU quantification of hippocampal stem cell proliferation in adult mice. As to conditions: in vivo and in vitro; summary statement. The arrangement: species or system BalbC mice. As for the experimental part: (§1) Adult six to eight week old male BalbC mice were obtained and kept in cages at room temperature, allowed access to food and water ad libidum, and subjected to 12-hour light/darkness cycles. All procedures were conducted in accordance with the guide for laboratory animal care of the Institute of Biological Sciences/Federal University of Pará (ICB/UFPA) Ethics Committee.
(§2) For BrdU analysis, animal subjects were administered BrdU (50 mg/kg) and were euthanized, and then were perfused with saline and 4% paraformaldehyde (PFA). The brain tissues were dissected and fixed at 4° C. in 4% PFA for 12 hours, then cryoprotected in 20% sucrose. The brain tissues were sliced at 40 micrometers (microns, μm) in a cryostat. […]
To analyze hippocampal stem cell proliferation and effect of physalins on this proliferation, groups of subjects were administered a dose of 50 mg/kg BrdU intraperitoneally and different doses of PD. […] The total number of BrdU-positive cells in the subgranule layer of the hippocampus was quantified. The number of BrdU-positive cells was calculated by measuring the area (ten micrometers corresponds to two cell bodies) between the hilus and the hippocampal granule layer in each cut (Bastos et al. 2008 J. Ethnopharmacol. 118(2): pages 246-251). […]
A qualitative analysis of BrdU-labeled cells in the dentate gyrus of adult mice was also performed using fluorescence microscopy. […]

Assay [4] concerns BrdU-positive cells in the subgranule layer of the hippocampus. Description: BrdU quantification of hippocampal stem cell proliferation, dosing every 7 days for 90 days. It counts as in vivo, BalbC mice. Conditions: 5 mg/kg every 7 days for 90 days. On the procedure: as §1, §2
To further analyze and quantitate hippocampal stem cell proliferation, effect of physalins on this proliferation, and survival of subjects, groups of subjects were administered a dose of 50 mg/kg BrdU intraperitoneally and 5 mg/kg of PD or AE every 7 days for 90 days. […] The total number of BrdU-positive cells in the subgranule layer of the hippocampus was quantified. The number of BrdU-positive cells was calculated by measuring the area (ten micrometers corresponds to two cell bodies) between the hilus and the hippocampal granule layer in each cut by the method of Bastos et al. 2008 J. Ethnopharmacol. […]

Assay [5] has as its system hippocampus cells (nestin-positive cells). Kind of assay: Nestin immunostaining of hippocampus cell culture. The class given is cell-based, Wistar rats. Conditions: 10 μM of PD for 24 hours; control EGF and FGF-2 10 ng/ml. On the procedure:
The hippocampi of Wistar rats (post natal days one to five) were dissected and mechanically dissociated. Viable cells were plated in four wells of a multi-well culture dish (NUNC Inc.) at a density of 10^6 cells/well containing neurobasal medium without serum or growth factor. After 24 hours, the cells were washed and PD was added to the cells (treated group). Control cells (absent PD) were treated with 10 nanograms per milliliter (ng/ml) of each of EGF and FGF-2 only. Cultures were incubated at 37° C. with 5% CO2 and 95% atmospheric air.
Hippocampus cells were cultured with 10 μM of PD for 24 hours, and the cells were then immunostained for using an anti-nestin antibody. Nestin is an intermediate filament protein expressed in dividing cells during the early stages of development in the central nervous system (CNS), peripheral nervous system (PNS) and in myogenic and other tissues. Without being limited by any particular theory or mechanism of action, it is here envisioned that presence of nestin in hippocampus cells indicates the presence of progenitor stem cells.

The structures appear in SMILES notation.

For `C[C@]12C(=O)C=CCC1=CC[C@@H]1[C@@H]2CC[C@@]2(O)C(=O)O[C@@]3(C)[C@H]4C[C@@]5(C)[C@@H](CO[C@@]16O[C@]23[C@H]5C6=O)C(=O)O4` [Physalin B], in assay [1], the “levels of TNF-α in serum” value is “significantly reduce levels”, the “levels of interleukin-6 in serum” value is given as “significantly reduce levels” and the “levels of interleukin-12 in serum” value was “significantly reduce levels”. Further, in the assay with macrophages, the “macrophages activation by lipopolysaccharide and interferon-γ” value (shortened to “macrophages activation”) is “inhibit macrophages activation”; the nitric oxide production result was “substantial reduction in nitric oxide production”. In addition, in the assay on Leishmania amazonensis, the “growth of Leishmania amazonensis in macrophages infected with the parasite” value was “inhibit the growth”.
With `C[C@@]12C[C@H]3OC(=O)[C@@H]1CO[C@]14O[C@]5([C@H]2C1=O)[C@@](O)(CC[C@H]1[C@H]4C[C@H]2O[C@]24CC=CC(=O)[C@]14C)C(=O)O[C@@]35C` [Physalin F], in the assay with macrophages, the “macrophages activation” value is “inhibit macrophages activation”; the nitric oxide production result is “substantial reduction in nitric oxide production”. Besides, the “growth of Leishmania amazonensis in macrophages infected with the parasite” value in the assay on Leishmania amazonensis is “inhibit the growth”.
In the case of `CNCCC(Oc1ccc(C(F)(F)F)cc1)c1ccccc1` (stereo not shown) [fluoxetine], in assay [2], the “reduction of stress-induced neurogenesis” value was “reverses or prevents the reduction of stress-induced neurogenesis”.
As for `C[C@@]12C[C@H]3OC(=O)[C@@H]1CO[C@]14O[C@]5([C@H]2C1=O)[C@@](O)(CC[C@H]1[C@H]4C[C@@H](O)[C@@]2(O)CC=CC(=O)[C@]12C)C(=O)O[C@@]35C` [Physalin D], in assay [3], the neurogenic activity result was “neurogenic activity in vivo and in vitro”. In addition, in assay [4], the “actively dividing cells in adult hippocampus tissues” value is “promotes the increase of actively dividing cells” and the cell survival result is listed as “improves cell survival for at least three months”. Also, the “number of nestin-positive cells in the hippocampus cell culture” value in assay [5] was “increased the number of nestin-positive cells”.
Consider `C[C@]12C(=O)C=CCC1C(O)CC1C2CC[C@]2(O)C(=O)O[C@@]3(C)[C@H]4C[C@@]5(C)C6C(=O)[C@]1(OC[C@H]5C(=O)O4)O[C@@]632` (stereo partly shown) [Physalin G], for which, in the assay with macrophages, the “macrophages activation” value is given as “inhibit macrophages activation”; the nitric oxide production result is “substantial reduction in nitric oxide production”.
